Experimental data: patent US20230346803A1, “COMPOSITIONS OF BERBERINE URSODEOXYCHOLATE AND METHODS THEREOF FOR TREATING PRIMARY SCLEROSING CHOLANGITIS” (SHENZHEN HIGHTIDE BIOPHARMACEUTICAL LTD., priority 2021, published 2023)

System: adult subjects with PSC
Test: Phase 2, multicenter, dose-ranging, 18-week, placebo-controlled study of BUDCA in PSC
Type: in vivo, human
Settings: for Share of subjects achieving a 25% reduction in ALP: 0 subjects on placebo; for Percent change from Baseline in GGT at Week 6: all subjects
Method: A Phase 2, multicenter, dose-ranging, 18-week study was conducted comparing two dose regimens of BUDCA (500 mg BID and 1,000 mg BID) to placebo in adult subjects with PSC.
BUDCA drug product (also herein referred to as HTD1801) is a film-coated tablet containing 250 mg of berberine ursodeoxycholate.
The clinical study design consisted of an initial randomized, double-blind, placebo-and dose-controlled, parallel-group period (Period 1), followed by a dose-controlled extension period (Period 2), which is followed by a placebo-controlled randomized withdrawal period (Period 3). • Period 1: Subjects were randomized to receive BID doses of 500 mg, 1,000 mg, or matching placebo for 6 weeks. The primary analysis was based on this initial 6-week randomized, double-blind, placebo- and dose-controlled, parallel-group period. • Period 2: Subjects previously randomized to 500 mg BID or 1,000 mg BID continued for 6 more weeks at that previous dose, while subjects previously randomized to placebo were re-randomized to receive 6 weeks of either 500 mg BID or 1,000 mg BID. • Period 3: Subjects were re-randomized to either continue on the active treatment they had received in Period 2 or be assigned to placebo.
Patients with a known diagnosis of PSC based upon magnetic resonance cholangiopancreatography (MRCP) or endoscopic retrograde cholangiopancreatography (ERCP) findings were eligible for inclusion in this study. To be eligible for randomization into the study, serum ALP levels at screening had to be elevated at least above 1.5 times the upper limit of normal (ULN).
The primary endpoint was the absolute change in ALP from Baseline to Week 6 (Period 1).
For this study, 88 subjects with PSC were screened, 59 were randomized, 55 received at least 1 dose of study drug (safety population), and 54 had at least 1 post-dose efficacy assessment (modified intent-to-treat (mITT) population).
All statistical tests were two-sided with an alpha level of 0.05. The statistical analyses were conducted with the SAS® System version 9.4 or higher. All analyses were subject to formal verification procedures.

[1] = Baseline ALP <3x ULN, 500 mg BID (n=8)
[2] = Baseline ALP <3x ULN, 1,000 mg BID (n=16)
[3] = Baseline ALP ≥3x ULN, 500 mg BID (n=7)
[4] = Baseline ALP ≥3x ULN, 1,000 mg BID (n=8)

## COc1ccc2cc3[n+](cc2c1OC)CCc1cc2c(cc1-3)OCO2.C[C@H](CCC(=O)[O-])[C@H]1CC[C@H]2[C@@H]3[C@@H](O)C[C@@H]4C[C@H](O)CC[C@]4(C)[C@H]3CC[C@]12C [BUDCA, berberine ursodeoxycholate]
500 mg BID, prior UDCA use, week 6
  Share of subjects achieving a 25% reduction in ALP: 33%
500 mg BID
  Percent change from Baseline in GGT at Week 6: -21%
500 mg BID, subjects without prior UDCA use
  Percent change in GGT at Week 6: -42%
1,000 mg BID
  Percent change from Baseline in GGT at Week 6: -40%
1,000 mg BID, subjects without prior UDCA use
  Percent change in GGT at Week 6: -67%
[1]
  Mean (SD) change from Baseline to Week 6 in ALP: -13 (118) U/L
  Mean (SD) change from Baseline to Week 6 in ALT: -63 (104) U/L
  Mean (SD) change from Baseline to Week 6 in AST: -18 (41) U/L
[2]
  Mean (SD) change from Baseline to Week 6 in ALP: -20 (106) U/L
  Mean (SD) change from Baseline to Week 6 in ALT: -30 (72) U/L
  Mean (SD) change from Baseline to Week 6 in AST: -14 (26) U/L
[3]
  Mean (SD) change from Baseline to Week 6 in ALP: -138 (134) U/L
  Mean (SD) change from Baseline to Week 6 in ALT: -48 (74) U/L
  Mean (SD) change from Baseline to Week 6 in AST: -37 (49) U/L
[4]
  Mean (SD) change from Baseline to Week 6 in ALP: -185 (143) U/L
  Mean (SD) change from Baseline to Week 6 in ALT: -80 (56) U/L
  Mean (SD) change from Baseline to Week 6 in AST: -37 (39) U/L
Period 1, both doses, compared to an increase in the placebo group
  Absolute change in ALP from Baseline to Week 6 (primary efficacy endpoint): clinically meaningful and statistically significant decrease in ALP
Period 3, pooled active-to-active groups, depending on the week examined
  Number of subjects achieving ALP <1.5 x ULN: 4-6
Subject 18-003, 1,000 mg BID, Week 18
  Reduction of GGT: ~ 10%
Subject 18-003, 1,000 mg BID, after Week 12 through Week 18, baseline 1.8-fold ULN, prior UDCA 15 mg/kg
  ALP relative to ULN: below 1.5 fold ULN
Subject 23-004, 1,000 mg BID, Week 18
  Reduction of GGT: ~50%
Subject 23-004, 1,000 mg BID, Week 18, baseline 2.6-fold ULN, prior UDCA 12 mg/kg
  ALP relative to ULN: below 1.6 fold ULN
Week 6
  Response rate with 1,000 mg BID compared with 500 mg BID, each efficacy endpoint: ~ 2 fold
Active treatment, subjects without prior UDCA use
  Share of subjects achieving a 25% reduction in ALP: Over half
All treatments throughout the study
  Mean total bilirubin, albumin, and platelets: remained stable and within normal range
Subjects with PSC, 500 mg BID and 1,000 mg BID, up to 18 weeks
  Safety and tolerability: safe and generally well tolerated
